Results taken from patent US5436229A, “Bisulfite adducts of arginine aldehydes” (Eli Lilly and Company, priority 1994, dated 1995).
Non-standard residues stand in square brackets, D forms with d. Residues, ends and D or L forms follow the SMILES beside them. dCha = N[C@H](CC1CCCCC1)C(=O)O

Assays:
human thrombin = human thrombin (Homo sapiens, UniProt P00734); assay: Thrombin amidase inhibition (Kass), chromogenic substrate; assay type: biochemical
Procedure, shortened: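 Kass, in liter per mole, was averaged over several compound concentrations, using free thrombin from a rate standard curve and free inhibitor as added minus bound. Hydrolysis of chromogenic substrate (0.25 mg/ml solution) was monitored at 405 nm with human thrombin (8 NIH units/ml solution) in Tris-NaCl buffer pH 7.4, compound in 50% aqueous methanol.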

factor Xa = molecular target: T1, factor Xa (Homo sapiens, UniProt P00742); assay: Serine protease inhibition (Kass), factor Xa; assay type: biochemical
T1 construct: Human factors X, Xa, IXa, XIa, and XIIa are purchased from Enzyme Research Laboratories; purchased Enzyme Research Laboratories, South Bend, Ind
Procedure, shortened: (§1)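 Chromogenic p-nitroanilide substrate assays run as for human thrombin; trypsin with N-Benzoyl-Phe-Val-Arg-p-nitroanilide, human factor Xa with N-Benzoyl-Ile-Glu-Gly-Arg-p-nitroanilide. Values are association constants (Kass).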

Bovine trypsin = molecular target: T2, Bovine trypsin (Bos taurus, UniProt P00760); assay: Serine protease inhibition (Kass), trypsin; assay type: biochemical
T2 construct: Bovine trypsin is purchased from Worthington Biochemicals; purchased Worthington Biochemicals, Freehold, N.J
T2 sequence (P00760 24-246): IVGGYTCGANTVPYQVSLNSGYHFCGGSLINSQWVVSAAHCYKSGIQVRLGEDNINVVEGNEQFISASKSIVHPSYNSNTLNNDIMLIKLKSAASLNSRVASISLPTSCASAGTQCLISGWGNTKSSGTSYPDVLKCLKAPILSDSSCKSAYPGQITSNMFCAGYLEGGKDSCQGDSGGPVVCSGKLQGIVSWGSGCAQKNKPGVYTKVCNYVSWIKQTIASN
Procedure, shortened: as §1

Human plasmin = molecular target: T3, Human plasmin (Homo sapiens, UniProt P00747); assay: Serine protease inhibition (Kass), plasmin; assay type: biochemical
T3 construct: Human plasmin is purchased from Boehringer Mannheim; purchased Boehringer Mannheim, Indianapolis, Ind
Procedure, shortened: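 Kass values come from the thrombin chromogenic procedure applied to fibrinolytic proteases. t-PA (nt-PA single chain, or mt-PA6) paired with substrate H-D-Ile-Pro-Arg-p-nitroanilide; human plasmin paired with H-D-Val-Leu-Lys-p-nitroanilide.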

[1] = molecular target: T4, tissue plasminogen activator (t-PA) (Homo sapiens, UniProt P00750); assay: Serine protease inhibition (Kass), t-PA; assay type: biochemical
T4 construct: purchased American Diagnostica, Greenwich, Conn

human plasma [2] = assay: Human plasma anticoagulation, thrombin time (TT); assay type: biochemical
Procedure, shortened: (§2)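 Compounds added across a wide concentration range to human plasma; APTT, PT and TT clotting times measured on a coagulation instrument, bovine thrombin used for plasma assays. Concentration doubling clotting time estimated by linear extrapolation.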

human plasma [3] = assay: Human plasma anticoagulation, activated partial thromboplastin time (APTT); assay type: biochemical
Procedure, shortened: as §2

human plasma [4] = assay: Human plasma anticoagulation, prothrombin time (PT); assay type: biochemical
Procedure, shortened: as §2

[5] = Index of Bioavailability (plasma TT AUC, oral vs i.v.); assay type: in vivo; conditions: rats, oral vs i.v. bolus
Text: Assays are done in duplicate and averaged.
Each sample population represents alternating sequential time points.

T1 sequence (P00742 235-488 limits assumed): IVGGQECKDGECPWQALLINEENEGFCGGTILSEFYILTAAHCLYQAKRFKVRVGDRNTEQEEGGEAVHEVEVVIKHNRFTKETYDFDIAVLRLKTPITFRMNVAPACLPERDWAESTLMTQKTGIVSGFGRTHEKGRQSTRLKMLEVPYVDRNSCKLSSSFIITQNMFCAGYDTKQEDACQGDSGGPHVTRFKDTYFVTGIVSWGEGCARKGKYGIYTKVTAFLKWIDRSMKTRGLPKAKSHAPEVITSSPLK
T1 sequence (P00742 41-179 partner limits assumed): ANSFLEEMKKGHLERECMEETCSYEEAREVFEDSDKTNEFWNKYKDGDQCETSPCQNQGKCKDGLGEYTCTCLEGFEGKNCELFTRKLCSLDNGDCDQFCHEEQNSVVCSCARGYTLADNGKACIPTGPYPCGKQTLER
T4 sequence (P00750 36-562): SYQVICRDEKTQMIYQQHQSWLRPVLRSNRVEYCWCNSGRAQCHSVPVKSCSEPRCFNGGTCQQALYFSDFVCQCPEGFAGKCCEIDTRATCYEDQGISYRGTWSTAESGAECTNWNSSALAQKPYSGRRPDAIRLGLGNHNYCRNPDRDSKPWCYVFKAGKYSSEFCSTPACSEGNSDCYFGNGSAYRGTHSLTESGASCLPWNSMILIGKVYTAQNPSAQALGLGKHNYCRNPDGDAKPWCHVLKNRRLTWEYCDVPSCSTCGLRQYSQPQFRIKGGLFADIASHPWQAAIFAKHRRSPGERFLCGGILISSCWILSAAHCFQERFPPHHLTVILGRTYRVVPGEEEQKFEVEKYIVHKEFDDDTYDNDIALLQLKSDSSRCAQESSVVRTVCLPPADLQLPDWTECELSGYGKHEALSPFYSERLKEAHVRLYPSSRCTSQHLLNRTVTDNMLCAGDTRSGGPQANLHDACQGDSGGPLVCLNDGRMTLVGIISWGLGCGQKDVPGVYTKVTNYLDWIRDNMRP
T3 sequence (P00747 581-810 limits assumed): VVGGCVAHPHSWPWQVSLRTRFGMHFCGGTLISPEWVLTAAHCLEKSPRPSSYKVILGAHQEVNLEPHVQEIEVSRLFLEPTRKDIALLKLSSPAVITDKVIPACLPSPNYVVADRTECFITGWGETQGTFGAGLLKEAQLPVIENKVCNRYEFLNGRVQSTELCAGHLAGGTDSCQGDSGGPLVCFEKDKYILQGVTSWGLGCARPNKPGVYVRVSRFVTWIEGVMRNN
T3 sequence (P00747 97-580 partner limits assumed): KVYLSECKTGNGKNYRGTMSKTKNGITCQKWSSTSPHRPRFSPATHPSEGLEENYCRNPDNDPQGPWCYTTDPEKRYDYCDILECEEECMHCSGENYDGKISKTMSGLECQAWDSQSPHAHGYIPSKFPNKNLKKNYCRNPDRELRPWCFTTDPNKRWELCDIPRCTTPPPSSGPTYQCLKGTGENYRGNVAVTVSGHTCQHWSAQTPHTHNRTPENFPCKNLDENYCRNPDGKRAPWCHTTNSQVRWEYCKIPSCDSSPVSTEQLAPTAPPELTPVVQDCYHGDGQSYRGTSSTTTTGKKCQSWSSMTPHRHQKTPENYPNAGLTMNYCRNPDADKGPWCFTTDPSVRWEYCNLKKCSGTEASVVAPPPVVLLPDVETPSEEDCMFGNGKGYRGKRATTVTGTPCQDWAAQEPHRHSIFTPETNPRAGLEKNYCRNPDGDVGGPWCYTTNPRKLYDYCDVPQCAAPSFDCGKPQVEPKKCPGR

SMILES | Kass Human Thrombin (human thrombin) | Kass Xa (factor Xa) | Kass Trypsin (Bovine trypsin) | Kass Plasmin (Human plasmin) | Kass t-PA [1] | Percent Relative Activity (Index of Bioavailability) [5] | 2 × Clotting time TT (human plasma [2]) | 2 × Clotting time APTT (human plasma [3]) | 2 × Clotting time PT (human plasma [4])
Cl.N=C(N)NCCC[C@@H](C=O)NC(=O)[C@@H]1CCCN1C(=O)[C@@H](Cc1ccccc1)NCC1CCCCC1 [Example 74, N-(cyclohexylmethyl)-D-phenylalanyl-L-Prolinyl-L-Arginine Aldehyde Hydrochloride] | 480 L/mol × 10^6 | 0.11 L/mol × 10^6 | 69 L/mol × 10^6 | 0.49 L/mol × 10^6 | 0.046 L/mol × 10^6 | 1% | 16 ng/mL | 860 ng/mL | 1,200 ng/mL
CC(=O)N[C@H](CC1CCCCC1)C(=O)N1CCC[C@H]1C(=O)N[C@H](C=O)CCCNC(=N)N.Cl [Example 72, N-(acetyl)-D-cyclohexylalanyl-L-Prolinyl-L-Arginine Aldehyde Hydrochloride] (Ac-[dCha]-Pro-Arg-aldehyde) | 26 L/mol × 10^6 | 1.1 L/mol × 10^6 | 12 L/mol × 10^6 | 0.61 L/mol × 10^6 | 0.035 L/mol × 10^6 | 9% | 92 ng/mL | 1,900 ng/mL | 3,500 ng/mL
Cl.N=C(N)NCCC[C@@H](C=O)NC(=O)[C@@H]1CCCN1C(=O)[C@@H](Cc1ccccc1)NC(=O)c1cccnc1 [Example 47, N-(nicotinoyl)-D-phenylalanyl-L-Prolinyl-L-Arginine Aldehyde Hydrochloride] | 58 L/mol × 10^6 | 0.080 L/mol × 10^6 | 12 L/mol × 10^6 | 0.41 L/mol × 10^6 | 0.17 L/mol × 10^6 | 3% | 47 ng/mL | 1,300 ng/mL | 1,700 ng/mL
Cl.N=C(N)NCCC[C@@H](C=O)NC(=O)[C@@H]1CCCN1C(=O)[C@@H](Cc1ccccc1)NS(=O)(=O)c1ccc(F)cc1F [Example 58, N-(2,4-difluorophenylsulfonyl)-D-phenylalanyl-L-Prolinyl-L-Arginine Aldehyde Hydrochloride] | 230 L/mol × 10^6 | 11 L/mol × 10^6 | 160 L/mol × 10^6 | 25 L/mol × 10^6 | 2.4 L/mol × 10^6 | 6% | 21 ng/mL | 350 ng/mL | 940 ng/mL
Cl.N=C(N)NCCC[C@@H](C=O)NC(=O)[C@@H]1CCCN1C(=O)[C@@H](Cc1ccccc1)NC(=O)c1cc2ccccc2cn1 [Example 46, N-(isoquinolinyl-2-carbonyl)-D-phenylalanyl-L-Prolinyl-L-Arginine Aldehyde Hydrochloride] | 110 L/mol × 10^6 | 0.16 L/mol × 10^6 | 22 L/mol × 10^6 | 0.55 L/mol × 10^6 | 0.32 L/mol × 10^6 | 1% | 35 ng/mL | 1,100 ng/mL | 1,400 ng/mL
Cl.Cn1c(C(=O)N[C@H](Cc2ccccc2)C(=O)N2CCC[C@H]2C(=O)N[C@H](C=O)CCCNC(=N)N)cc2ccccc21 [Example 45, N-(1-methylindolyl-2-carbonyl)-D-phenylalanyl-L-Prolinyl-L-Arginine Aldehyde Hydrochloride] | 850 L/mol × 10^6 | 0.51 L/mol × 10^6 | 120 L/mol × 10^6 | 7.9 L/mol × 10^6 | 31 L/mol × 10^6 | 2% | 43 ng/mL | 440 ng/mL | 870 ng/mL
Cl.N=C(N)NCCC[C@@H](C=O)NC(=O)[C@@H]1CCCN1C(=O)[C@@H](Cc1ccccc1)NS(=O)(=O)c1ccccc1 [Example 57, N-(phenylsulfonyl)-D-phenylalanyl-L-Prolinyl-L-Arginine Aldehyde Hydrochloride] | 270 L/mol × 10^6 | 3.6 L/mol × 10^6 | 180 L/mol × 10^6 | 19 L/mol × 10^6 | 2.3 L/mol × 10^6 | 3% | 14 ng/mL | 450 ng/mL | 930 ng/mL

Further lines, with some results ahead:

Kass Human Thrombin (human thrombin) | Kass Xa (factor Xa) | Kass Trypsin (Bovine trypsin) | Kass Plasmin (Human plasmin) | Kass t-PA [1] | Percent Relative Activity (Index of Bioavailability) [5] | SMILES | 2 × Clotting time TT (human plasma [2]) | 2 × Clotting time APTT (human plasma [3]) | 2 × Clotting time PT (human plasma [4])
470 L/mol × 10^6 | 8.3 L/mol × 10^6 | 230 L/mol × 10^6 | 27 L/mol × 10^6 | 0.83 L/mol × 10^6 | 18% | CCCCS(=O)(=O)N[C@H](Cc1ccccc1)C(=O)N1CCC[C@H]1C(=O)N[C@H](C=O)CCCNC(=N)N.Cl [Example 54, N-(n-butylsulfonyl)-D-phenylalanyl-L-Prolinyl-L-Arginine Aldehyde Hydrochloride] | 18 ng/mL | 300 ng/mL | 700 ng/mL
460 L/mol × 10^6 | 6.0 L/mol × 10^6 | 260 L/mol × 10^6 | 25 L/mol × 10^6 | 3.5 L/mol × 10^6 | 10% | CC(C)S(=O)(=O)N[C@H](Cc1ccccc1)C(=O)N1CCC[C@H]1C(=O)N[C@H](C=O)CCCNC(=N)N.Cl [Example 55, N-(isopropylsulfonyl)-D-phenylalanyl-L-Prolinyl-L-Arginine Aldehyde Hydrochloride] | 13 ng/mL | 270 ng/mL | 510 ng/mL
450 L/mol × 10^6 | 2.6 L/mol × 10^6 | 260 L/mol × 10^6 | 31 L/mol × 10^6 | 2.9 L/mol × 10^6 | 31% | CCS(=O)(=O)N[C@H](Cc1ccccc1)C(=O)N1CCC[C@H]1C(=O)N[C@H](C=O)CCCNC(=N)N.Cl [Example 52, N-(ethylsulfonyl)-D-phenylalanyl-L-Prolinyl-L-Arginine Aldehyde Hydrochloride] | 9 ng/mL | 260 ng/mL | 660 ng/mL
1,700 L/mol × 10^6 | 13 L/mol × 10^6 | 480 L/mol × 10^6 | 29 L/mol × 10^6 | 2.8 L/mol × 10^6 | 14% | CCCS(=O)(=O)N[C@H](Cc1ccccc1)C(=O)N1CCC[C@H]1C(=O)N[C@H](C=O)CCCNC(=N)N.Cl [Example 53, N-(n-propylsulfonyl)-D-phenylalanyl-L-Prolinyl-L-Arginine Aldehyde Hydrochloride] | 6 ng/mL | 220 ng/mL | 510 ng/mL
